Test results: patent publication US8097722B2 (priority 2008, dated 2012)
Read-outs that look alike come from different tables or passages of the source. Peptide text beside a SMILES is read from it. * marks the point of attachment. MeOSuc = COC(=O)CCC(=O)*; CH2Cl = ClC*

What was measured:
Purified PMPMEase = molecular target: T1, Purified PMPMEase (Sus scrofa, UniProt Q29550); assay type: biochemical, porcine
T1 construct: from tissue; host or cells: porcine liver supernatant, purified by column chromatography
T1 sequence (Q29550 19-566): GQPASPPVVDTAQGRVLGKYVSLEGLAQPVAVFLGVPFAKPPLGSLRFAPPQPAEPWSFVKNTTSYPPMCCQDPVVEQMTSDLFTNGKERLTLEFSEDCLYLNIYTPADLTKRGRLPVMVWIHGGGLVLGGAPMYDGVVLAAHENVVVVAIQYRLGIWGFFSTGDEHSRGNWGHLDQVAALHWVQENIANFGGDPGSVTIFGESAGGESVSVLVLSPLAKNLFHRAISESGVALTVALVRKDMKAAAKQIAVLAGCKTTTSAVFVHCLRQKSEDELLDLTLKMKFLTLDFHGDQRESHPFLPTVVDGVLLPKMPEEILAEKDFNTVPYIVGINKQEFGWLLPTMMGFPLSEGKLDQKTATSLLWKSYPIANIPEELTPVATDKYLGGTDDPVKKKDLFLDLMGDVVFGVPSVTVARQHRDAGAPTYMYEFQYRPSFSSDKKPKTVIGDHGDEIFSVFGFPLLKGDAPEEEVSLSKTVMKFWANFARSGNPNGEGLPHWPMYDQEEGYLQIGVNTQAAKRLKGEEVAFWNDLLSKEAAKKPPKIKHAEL

porcine liver PMPMEase = molecular target: T2, porcine liver PMPMEase (Sus scrofa, UniProt Q29550); assay: PMPMEase inhibition assay of PMSF, GESF and FESF (IC50); assay type: biochemical; details: for increase in potency relative to PMSF: ratio of IC50 values vs PMSF
T2 construct: the supernatant fraction was prepared from 100 g of porcine liver; from tissue; host or cells: porcine liver 40,000×g supernatant
T2 sequence (Q29550 19-566): T1 sequence (Q29550 19-566)

[1] = Aqueous solubility (statement); assay type: physicochemical
liver PMPMEase = assay type: biochemical, porcine
brain PMPMEase = assay type: biochemical, porcine
[2] = 0.01 mM compound, 20 min preincubation at 37° C., HCFCM 1 mM
[3] = 1 mM compound, 20 min preincubation at 37° C., HCFCM 1 mM

O=C(C(=O)c1ccccc1)c1ccccc1 [Benzil]
Residual activity (% of Control, SEM, n = 3) 0.1 mM (Purified PMPMEase): *69.4 ± 0.24 % of Control
Residual activity (% of Control, SEM, n = 3) 1 mM (Purified PMPMEase): 38.0 ± .43 % of Control

NC(=O)OCc1ccccc1 [Benzyl carbamate]
Residual activity (% of Control, SEM, n = 3) 0.01 mM (Purified PMPMEase): 117 ± 11 % of Control
Residual activity (% of Control, SEM, n = 3) 1 mM (Purified PMPMEase): 124 ± 5 % of Control

CCC(C)C(O)C(C)C(=O)C(C)/C=C(\C)CC(C)C1OC(=O)C1C (centres unmarked) [Ebelactone A]
Residual activity (% of Control, SEM, n = 3) 0.01 mM (Purified PMPMEase): 123 ± 7 % of Control
Residual activity (% of Control, SEM, n = 3) 1 mM (Purified PMPMEase): 18.3 ± 0.3 % of Control

CCC(C)C(O)C(C)C(=O)C(C)/C=C(\C)CC(C)C1OC(=O)C1CC (centres unmarked) [Ebelactone B]
Residual activity (% of Control, SEM, n = 3) 0.01 mM (Purified PMPMEase): 56.4 ± 1.0 % of Control
Residual activity (% of Control, SEM, n = 3) 1 mM (Purified PMPMEase): 0 ± 0 % of Control

CC(C)=CCC/C(C)=C/CC/C(C)=C/CSCCS(=O)(=O)F [FESF, S-trans,trans-farnesyl-2-thioethanesulfonyl fluoride]
IC50 (porcine liver PMPMEase): 37 ± 0.42 nM
increase in potency relative to PMSF (porcine liver PMPMEase): > 440 fold
aqueous solubility [1]: not aqueous-soluble

CC(C)=CCC/C(C)=C/CSCCS(=O)(=O)F [GESF, S-trans-geranyl-2-thioethanesulfonyl fluoride]
IC50 (porcine liver PMPMEase): 169 ± 6.8 nM
increase in potency relative to PMSF (porcine liver PMPMEase): over 97 fold
aqueous solubility [1]: not aqueous-soluble

CC(C)=CCC/C(C)=C/CC/C(C)=C/CC/C(C)=C/CS(=O)(=O)F [GGESF, S-geranylgeranyl sulfonyl fluoride]
higher potency than FESF (concluded from the data, not tested) (porcine liver PMPMEase; predicted vs FESF): 2 fold

CC(C)CC(N)C(=O)CCl [L-Leu chloromethyl ketone (CMK)]
Residual activity (% of Control, SEM, n = 3) 0.01 mM (Purified PMPMEase): 93.3 ± 1.0 % of Control
Residual activity (% of Control, SEM, n = 3) 1 mM (Purified PMPMEase): 60.4 ± 1.9 % of Control

COC(=O)CCC(=O)N[C@@H](C)C(=O)N[C@@H](C)C(=O)N1CCC[C@H]1C(=O)N[C@H](C(=O)CCl)C(C)C [N- (methoxysuccinyl)-L- Ala-L-Ala-L-Pro-L- Val CMK] (MeOSuc-AAPV-CH2Cl)
Residual activity (% of Control, SEM, n = 3) 0.01 mM (Purified PMPMEase; [2]): 105 ± 3.1 % of Control
Residual activity (% of Control, SEM, n = 3) 1 mM (Purified PMPMEase; [3]): 61.8 ± 2.0 % of Control

O=C(N[C@@H](Cc1ccccc1)C(=O)CCl)OCc1ccccc1 [N-carbobenzyloxy-L- Phe CMK]
Residual activity (% of Control, SEM, n = 3) 0.01 mM (Purified PMPMEase): 94.8 ± 1.3 % of Control
Residual activity (% of Control, SEM, n = 3) 1 mM (Purified PMPMEase): 57.0 ± 2.0 % of Control

Cc1ccc(S(=O)(=O)N[C@@H](CCCCN)C(=O)CCl)cc1 [Nα-tosyl-L-Lys CMK]
Residual activity (% of Control, SEM, n = 3) 0.01 mM (Purified PMPMEase): 98.3 ± 1.9 % of Control
Residual activity (% of Control, SEM, n = 3) 1 mM (Purified PMPMEase): 98.6 ± 7.3 % of Control

CCOP(=O)(OCC)Oc1ccc([N+](=O)[O-])cc1 [Paraoxon]
Residual activity (% of Control, SEM, n = 3) 0.01 mM (Purified PMPMEase; [2]): 0 ± 0 % of Control
Residual activity (% of Control, SEM, n = 3) 1 mM (Purified PMPMEase; [3]): 0 ± 0 % of Control
Liver Mean (mean percent inhibition relative to the controls) (liver PMPMEase): 100%
Brain Mean (mean percent inhibition relative to the controls) (brain PMPMEase): 87%

O=S(=O)(F)Cc1ccccc1 [Phenylmethylsulfonyl fluoride, phenylmethylsulfonyl fluoride]
Residual activity (% of Control, SEM, n = 3) 0.01 mM (Purified PMPMEase; [2]): 79.5 ± 1.8 % of Control
Residual activity (% of Control, SEM, n = 3) 1 mM (Purified PMPMEase; [3]): 0 ± 0 % of Control
